Laboratory results published in paper PMC7284870, “Antimicrobial Peptides from Rat-Tailed Maggots of the Drone Fly Eristalis tenax Show Potent Activity against Multidrug-Resistant Gram-Negative Bacteria” (Microorganisms, 2020).
Where two headings read alike, the source gives them in different places. No end group written: not given here.

What was measured:
S. aureus ATCC 33592 = format: cell-based, Staphylococcus aureus; settings: CAMB, 18 h, 37 °C, n = 4
Experimental: (§1) The strains that were used in this study (Table 2 and Table S1) were cultivated at 37 °C in cation-adjusted Mueller–Hinton broth (CAMB) in Erlenmeyer flasks, or on the same medium with agar in Petri dishes. Exceptionally, Mycobacterium smegmatis was cultivated at 37 °C in brain heart infusion (BHI) medium that was supplemented with 1% Tween-80 in Erlenmeyer flasks, or on the same medium lacking detergent but with agar in Petri dishes. Strains listed with Robert Koch Institute (RKI) strain numbers are clinical isolates from the RKI strain collection originating from hospitalized patients in Germany. The remaining strains originated from the Sanofi strain collection and they were originally purchased from the American Type Culture Collection or the German Collection of Microorganisms and Cell Cultures. Meropenem/colistin-resistant strains were maintained, as described above, with the appropriate antibiotic added at levels below the minimal inhibitory concentration (MIC).
(§2) The MIC values were determined in 384-well microtiter plates with an assay volume of 20 µL. Immediately before each assay, the cultures of test organisms (bacteria grown for 18 h, Candida albicans and M. smegmatis grown for 48 h) were diluted with the appropriate medium to a density of 1 × 10^6 cells/mL (C. albicans), 1 × 10^5 cells/mL (M. smegmatis) or 5 × 10^5 cells per mL (other species). […] We transferred 2-µL aliquots from this dilution series to new 384-well microtiter plates while using a CyBio-Well 384-channel automated pipettor (Analytic Jena, Jena, Germany) and added 18 µL of the diluted suspension of each test species using a Viafill reagent dispenser (Integra), thus reducing the final peptide concentration 10-fold to the range 1024–0.03125 µg/mL. […] The growth of M. smegmatis was measured using the BacTiter-Glo luminescence test system (Promega, Madison, WI, USA). The growth of the other species was determined by visual inspection of the microtiter plate and turbidimetry based on the optical density at 600 nm (OD600). The MIC was defined as the peptide concentration at which no bacterial growth was observed. We supplemented the test medium with either 150 mM NaCl or 1.25 mM CaCl2 to represent monovalent and divalent cations to simulate physiological conditions.

[1] = system: Micrococus luteus DSM 20030; format: cell-based, Micrococcus luteus; settings: CAMB, 18 h, 37 °C, n = 4
Experimental: as §1
(§3) The MIC values were determined in 384-well microtiter plates with an assay volume of 20 µL. […] The growth of M. smegmatis was measured using the BacTiter-Glo luminescence test system (Promega, Madison, WI, USA). The growth of the other species was determined by visual inspection of the microtiter plate and turbidimetry based on the optical density at 600 nm (OD600). […]

[2] = system: Staphylococcus aureus ATCC 25923; format: cell-based; settings: CAMB, 18 h, 37 °C, n = 4
Experimental: as §1, §2

[3] = system: Listeria monocytogenes DSM 20600; format: cell-based; settings: CAMB, 18 h, 37 °C, n = 4
Experimental: as §1, §2

[4] = system: Enterococcus faecium DSM 17050; format: cell-based; settings: CAMB, 18 h, 37 °C, n = 4
Experimental: as §1, §2

[5] = system: Klebsiella pneumoniae DSM 30104; format: cell-based; settings: CAMB, 18 h, 37 °C, n = 4
Experimental: as §1, §2

[6] = system: Staphylococcus epidermidis ATCC 35984; format: cell-based; settings: CAMB, 18 h, 37 °C, n = 4
Experimental: as §1, §2

[7] = system: Pseudomonas aeruginosa ATCC 27853; format: cell-based; settings: CAMB, 18 h, 37 °C, n = 4
Experimental: as §1, §2

[8] = system: Proteus mirabilis DSM 4479; format: cell-based; settings: CAMB, 18 h, 37 °C, n = 4
Experimental: as §1, §2

[9] = system: Mycobacterium smegmatis ATCC 607; format: cell-based; settings: BHI, 48 h, 37 °C, BacTiter-Glo, n = 4
Experimental: as §1, §2

[10] = system: Acinetobacter baumannii ATCC 19606; format: cell-based; settings: CAMB, 18 h, 37 °C, n = 4
Experimental: as §1, §2

E. coli ATCC 25922 = system: E. coli ATCC 25922
Experimental: as §1
The MIC values were determined in 384-well microtiter plates with an assay volume of 20 µL. Immediately before each assay, the cultures of test organisms (bacteria grown for 18 h, Candida albicans and M. smegmatis grown for 48 h) were diluted with the appropriate medium to a density of 1 × 10^6 cells/mL (C. albicans), 1 × 10^5 cells/mL (M. smegmatis) or 5 × 10^5 cells per mL (other species). The peptides were dissolved in sterile water at a concentration of 10.24 mg/mL and a 1:2 dilution series was prepared in a 384-well microtiter plate to achieve the concentration range 10,240–0.3125 µg/mL in a volume of 50 µL. We transferred 2-µL aliquots from this dilution series to new 384-well microtiter plates while using a CyBio-Well 384-channel automated pipettor (Analytic Jena, Jena, Germany) and added 18 µL of the diluted suspension of each test species using a Viafill reagent dispenser (Integra), thus reducing the final peptide concentration 10-fold to the range 1024–0.03125 µg/mL. The cells were incubated at 37 °C and 85% relative humidity, shaking at 180 rpm for 48 h (M. smegmatis), 24 h (C. albicans) or 18 h (other species). The growth of M. smegmatis was measured using the BacTiter-Glo luminescence test system (Promega, Madison, WI, USA). The growth of the other species was determined by visual inspection of the microtiter plate and turbidimetry based on the optical density at 600 nm (OD600). […] We supplemented the test medium with either 150 mM NaCl or 1.25 mM CaCl2 to represent monovalent and divalent cations to simulate physiological conditions.

Canida albicans FH2173 = format: cell-based, Candida albicans; settings: CAMB, 24 h, 37 °C, n = 4
Experimental: as §1, §2

reference strains = assay: MIC, several reference strains; format: cell-based; settings: reference strains of Table 2
Experimental: as §1, §3

Work on “AACSLGSLLNVGCNSCACAAHCLATRGKNGACNSQRRCVCNK (disulfide (positions not given here)) [EtDef1]” yielded an MIC (S. aureus ATCC 33592) greater than 128 µg/mL, an MIC [1] greater than 128 µg/mL and an MIC [2] greater than 128 µg/mL. It also gave an MIC [3] greater than 128 µg/mL, an MIC [4] greater than 128 µg/mL and an MIC [5] greater than 128 µg/mL. The MIC [6] was greater than 128 µg/mL, the MIC [7] was greater than 128 µg/mL and the MIC [8] was greater than 128 µg/mL. The MIC [9] was greater than 128 µg/mL, the MIC [10] was greater than 128 µg/mL and the MIC (E. coli ATCC 25922; CAMB + A000160918 [4 µg/mL]) was greater than 256 µg/mL. The MIC (E. coli ATCC 25922; CAMB + A000161246 [4 µg/mL]) was greater than 256 µg/mL, the MIC (E. coli ATCC 25922; CAMB + A000173031A [4 µg/mL]) was greater than 256 µg/mL and the MIC (E. coli ATCC 25922; CAMB + A000173033A [4 µg/mL]) was greater than 256 µg/mL. It also gave an MIC (E. coli ATCC 25922; CAMB + A000173039A [0.25 µg/mL]) greater than 256 µg/mL, an MIC (E. coli ATCC 25922; CAMB + A000173380A [4 µg/mL]) greater than 256 µg/mL and an MIC (E. coli ATCC 25922; CAMB + A000498432A [4 µg/mL]) greater than 256 µg/mL. For the same sequence, the MIC (E. coli ATCC 25922; CAMB + A000499933A [0.0625 µg/mL]) was greater than 256 µg/mL, the MIC (E. coli ATCC 25922; CAMB + A000500059A [0.0625 µg/mL]) was greater than 256 µg/mL and the MIC (E. coli ATCC 25922; CAMB + A000500146A [0.0625 µg/mL]) was 128 µg/mL. For the same sequence, the MIC (E. coli ATCC 25922; CAMB + A000501181A [4 µg/mL]) was greater than 256 µg/mL, the MIC (E. coli ATCC 25922; CAMB + Colistin E1 [0.016 µg/mL]) was 128 µg/mL and the MIC (E. coli ATCC 25922; CAMB + Colistin E2 [0.016 µg/mL]) was 4 µg/mL. The MIC (E. coli ATCC 25922; CAMB + PMB [0.016 µg/mL]) was 1 µg/mL, the MIC (E. coli ATCC 25922; CAMB + PMBN [4 µg/mL]) was greater than 256 µg/mL and the MIC (E. coli ATCC 25922; CAMB, 18 h, 37 °C, n = 4) was greater than 128 µg/mL. For the same sequence, the MIC (E. coli ATCC 25922; Table 6, CAMB) was greater than 256 µg/mL, the MIC (Canida albicans FH2173) was greater than 128 µg/mL and the “activity against the test strains” value (reference strains) was “inactive”.
